Legend:
[1] = target: T1, ALK5 (Homo sapiens, UniProt P36897); assay: ALK5 enzyme inhibition assay (33P-ATP filter-binding, Reaction Biology Corp); type: biochemical; settings: casein substrate 1 mg/mL, 10 uM ATP
T1 construct: purchased Reaction Biology Corp (Malvern, PA)
T1 sequence (P36897 34-503): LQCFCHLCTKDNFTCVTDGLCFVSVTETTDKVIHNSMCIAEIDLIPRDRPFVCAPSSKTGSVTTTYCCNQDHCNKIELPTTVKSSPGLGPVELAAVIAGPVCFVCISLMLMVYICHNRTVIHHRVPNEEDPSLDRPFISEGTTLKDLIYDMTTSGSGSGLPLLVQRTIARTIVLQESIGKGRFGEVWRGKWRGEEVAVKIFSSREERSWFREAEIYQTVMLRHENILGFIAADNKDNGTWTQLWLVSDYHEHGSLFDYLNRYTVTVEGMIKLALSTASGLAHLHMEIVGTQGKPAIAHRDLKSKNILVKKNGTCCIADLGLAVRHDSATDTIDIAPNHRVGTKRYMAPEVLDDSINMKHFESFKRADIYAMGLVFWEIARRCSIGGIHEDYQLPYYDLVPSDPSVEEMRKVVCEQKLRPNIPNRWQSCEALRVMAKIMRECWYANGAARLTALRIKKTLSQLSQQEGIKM
Procedure: ALK5 enzyme inhibition assays were performed by Reaction Biology Corp (Malvern, PA). 1 mg/mL of peptide subtrate (casein) and 10 uM ATP were prepared in a mixture of fresh reaction buffer. The kinase was delivered into the substrate solution which was gently mixed. Compounds in 100% DMSO were added to the kinase reaction mixture by Acoustic technology (Echo550; nanoliter range) and the mixture was incubated for 20 min at room temperature. ^33P-ATP (Specific activity 10 uCi/uL) was added into the reaction mixture to initiate the reaction and the reaction mixture was incubated for 2 hours at room temperature. Radioactivity was detected by filter-binding method and kinase activity data were expressed as the percent remaining kinase activity in test samples compared to vehicle (dimethyl sulfoxide) reactions. IC50 values and curve fits were obtained using Prism (GraphPad Software).

[2] = system: TGFb/SMAD Signaling Pathway SBE reporter cell line; assay: TGFb reporter assay (luciferase); type: cell-based; settings: 5-6 h preincubation, then TGFb, 18 h, luminescence
Procedure: TGFb/SMAD Signaling Pathway SBE reporter cell line was obtained from BPS Bioscience. Cells were passed/expanded/stored in liquid nitrogen per supplier's instruction with the exception that growth media was changed to DMEM-C with Geneticin (DMEM supplemented with 10% fetal bovine serum, 1× NEAA, 1 mM Pyruvate, 2 mM glutamine, 50 μg/mL penicillin, 50 U/mL streptomycin and 400 ug/mL of Geneticin). The assay media was MEM supplemented with 0.5% fetal bovine serum, 1× NEAA, 1 mM Pyruvate, 50 μg/mL penicillin and 50 U/mL streptomycin.
Reporter cells were harvested from the tissue culture flasks by incubation in small quantity of Versene at room temperature for three to five minutes after the media in the flask was removed and cells rinsed with PBS. Cells were counted and diluted in the assay media at ˜0.8×10^6 cells/mL then 50 uL/well were added to 96-well assay plate. Test samples (at desired concentrations diluted in assay media) were added to assay plate containing the 50 uL/well of cells (or media only), 50 uL per well, and incubated for 5-6 hours at 37° C. in a 5% CO2 humidified incubator. After that time, 15 uL of TGFb diluted to 12.5 ng/mL in the assay media was added to the plate. Controls included TGFb titration (from 25 to 0 ng/mL) without inhibitors, and media only (without cells, inhibitor or TGFb). Plates were incubated at 37° C. in a 5% CO2 humidified incubator for 18 h. Luciferase substrate solution was subsequently added at 75 uL per well, incubated in dark with shaking at room temperature for 10 min, and luminescence was measured using a luminometer.

IC50 [1] [nM] | IC50 [2] [nM] | SMILES
100 to 1000 | 10 to 100 | Cc1cccc(-c2nc(CNC3CCc4ccccc43)[nH]c2-c2ccc3ncnn3c2)n1 (racemic) [Compound 1.26, rac-N-((5-([1,2,4]triazolo[1,5-a]pyridin-6-yl)-4-(6-methylpyridin-2-yl)-1H-imidazol-2-yl)methyl)-2,3-dihydro-1H-inden-1-amine]
100 to 1000 | 100 to 1000 | Cc1cccc(-c2nc(CNc3ccc4c(c3)CNCC4)[nH]c2-c2ccc3ncnn3c2)n1 [Compound 1.1, N-((5-([1,2,4]triazolo[1,5-a]pyridin-6-yl)-4-(6-methylpyridin-2-yl)-1H-imidazol-2-yl)methyl)-1,2,3,4-tetrahydroisoquinolin-7-amine]
100 to 1000 | 100 to 1000 | Cc1cccc(-c2nc(CNc3ccc4c(c3)CCNC4)[nH]c2-c2ccc3ncnn3c2)n1 [Compound 1.2, N-((5-([1,2,4]triazolo[1,5-a]pyridin-6-yl)-4-(6-methylpyridin-2-yl)-1H-imidazol-2-yl)methyl)-1,2,3,4-tetrahydroisoquinolin-6-amine]
100 to 1000 | 100 to 1000 | Cc1cccc(-c2nc(CNc3cccc4c3CNCC4)[nH]c2-c2ccc3ncnn3c2)n1 [Compound 1.3, N-((5-([1,2,4]triazolo[1,5-a]pyridin-6-yl)-4-(6-methylpyridin-2-yl)-1H-imidazol-2-yl)methyl)-1,2,3,4-tetrahydroisoquinolin-8-amine]
100 to 1000 | 100 to 1000 | Cc1cccc(-c2nc(CNc3cccc4c3CCNC4)[nH]c2-c2ccc3ncnn3c2)n1 [Compound 1.4, N-((5-([1,2,4]triazolo[1,5-a]pyridin-6-yl)-4-(6-methylpyridin-2-yl)-1H-imidazol-2-yl)methyl)-1,2,3,4-tetrahydroisoquinolin-5-amine]
1000 to 10000 | 100 to 1000 | Cc1cccc(-c2nc(CNC3CC3)[nH]c2-c2ccc3ncnn3c2)n1 [Compound 1.7, N-((5-([1,2,4]triazolo[1,5-a]pyridin-6-yl)-4-(6-methylpyridin-2-yl)-1H-imidazol-2-yl)methyl)-cyclopropanamine]
1000 to 10000 | 100 to 1000 | Cc1cccc(-c2nc(CNCC3CC3)[nH]c2-c2ccc3ncnn3c2)n1 [Compound 1.8, 1-(5-([1,2,4]triazolo[1,5-a]pyridin-6-yl)-4-(6-methylpyridin-2-yl)-1H-imidazol-2-yl)-N-(cyclopropyl-methyl)methanamine]
1000 to 10000 | 100 to 1000 | Cc1cccc(-c2nc(CNC3CCC3)[nH]c2-c2ccc3ncnn3c2)n1 [Compound 1.10, 1-(5-([1,2,4]triazolo[1,5-a]pyridin-6-yl)-4-(6-methylpyridin-2-yl)-1H-imidazol-2-yl)-N-(cyclobutyl)methanamine]
100 to 1000 | 10 to 100 | Cc1cccc(-c2nc(CNC3CCCC3)[nH]c2-c2ccc3ncnn3c2)n1 [Compound 1.11, 1-(5-([1,2,4]triazolo[1,5-a]pyridin-6-yl)-4-(6-methylpyridin-2-yl)-1H-imidazol-2-yl)-N-(cyclopentyl)methanamine]
100 to 1000 | 10 to 100 | Cc1cccc(-c2nc(CNC3CCCCC3)[nH]c2-c2ccc3ncnn3c2)n1 [Compound 1.12, 1-(5-([1,2,4]triazolo[1,5-a]pyridin-6-yl)-4-(6-methylpyridin-2-yl)-1H-imidazol-2-yl)-N-(cyclohexyl)methanamine]
100 to 1000 | 10 to 100 | Cc1cccc(-c2nc(CNC3CCCCCC3)[nH]c2-c2ccc3ncnn3c2)n1 [Compound 1.13, 1-(5-([1,2,4]triazolo[1,5-a]pyridin-6-yl)-4-(6-methylpyridin-2-yl)-1H-imidazol-2-yl)-N-(cycloheptyl)methanamine]
100 to 1000 | 10 to 100 | Cc1cccc(-c2nc(CNC3CCOCC3)[nH]c2-c2ccc3ncnn3c2)n1 [Compound 1.14, 1-(5-([1,2,4]triazolo[1,5-a]pyridin-6-yl)-4-(6-methylpyridin-2-yl)-1H-imidazol-2-yl)-N-(4-tetrahydropyranyl)methanamine]
1000 to 10000 | 100 to 1000 | Cc1cccc(-c2nc(CNc3cncc(CN)c3)[nH]c2-c2ccc3ncnn3c2)n1 [Compound 1.19, N-((5-([1,2,4]triazolo[1,5-a]pyridin-6-yl)-4-(6-methylpyridin-2-yl)-1H-imidazol-2-yl)methyl)-5-(aminomethyl)pyridin-3-amine]
100 to 1000 | 100 to 1000 | CC(=O)NC1Cc2ccc(NCc3nc(-c4cccc(C)n4)c(-c4ccc5ncnn5c4)[nH]3)cc2C1 (stereo not shown) [Compound 1.25, N-(5-(((5-([1,2,4]triazolo[1,5-a]pyridin-6-yl)-4-(6-methylpyridin-2-yl)-1H-imidazol-2-yl)methyl)amino)-2,3-dihydro-1H-inden-2-yl)acetamide]
100 to 1000 | 10 to 100 | Cc1cccc(-c2nc(CNC3Cc4ccccc4C3)[nH]c2-c2ccc3ncnn3c2)n1 [Compound 1.27, N-((5-([1,2,4]triazolo[1,5-a]pyridin-6-yl)-4-(6-methylpyridin-2-yl)-1H-imidazol-2-yl)methyl)-2,3-dihydro-1H-inden-2-amine]
100 to 1000 | 10 to 100 | Cc1cccc(-c2nc(CN[C@@H]3CCc4ccccc43)[nH]c2-c2ccc3ncnn3c2)n1 [Compound 1.30, (R)-N-((5-([1,2,4]triazolo[1,5-a]pyridin-6-yl)-4-(6-methylpyridin-2-yl)-1H-imidazol-2-yl)methyl)-2,3-dihydro-1H-inden-1-amine]
100 to 1000 | 100 to 1000 | Cc1cccc(-c2nc(CNc3cccc4c3CNC4)[nH]c2-c2ccc3ncnn3c2)n1 [Compound 1.31, N-((5-([1,2,4]triazolo[1,5-a]pyridin-6-yl)-4-(6-methylpyridin-2-yl)-1H-imidazol-2-yl)methyl)isoindolin-4-amine]
10 to 100 | 100 to 1000 | Cc1cccc(-c2nc(CN[C@H]3CCCC[C@@H]3F)[nH]c2-c2ccc3ncnn3c2)n1 [Compound 1.32, (1S,2S)-N-((5-([1,2,4]triazolo[1,5-a]pyridin-6-yl)-4-(6-methylpyridin-2-yl)-1H-imidazol-2-yl)methyl)-2-fluorocyclohexan-1-amine]
 | 100 to 1000 | Cc1cccc(-c2nc(C3CCN(C(=O)OC(C)(C)C)C3)[nH]c2-c2ccc3ncnn3c2)n1 (stereo not shown) [Compound 1.51, tert-butyl 3-(5-([1,2,4]triazolo[1,5-a]pyridin-6-yl)-4-(6-methylpyridin-2-yl)-1H-imidazol-2-yl)pyrrolidine-1-carboxylate]
 | 100 to 1000 | Cc1cccc(-c2nc(C3CN(C(=O)OC(C)(C)C)C3)[nH]c2-c2ccc3ncnn3c2)n1 [Compound 1.52, tert-butyl 3-(5-([1,2,4]triazolo[1,5-a]pyridin-6-yl)-4-(6-methylpyridin-2-yl)-1H-imidazol-2-yl)azetidine-1-carboxylate]
 | 1000 to 10000 | Cc1cccc(-c2nc(C3CNC3)[nH]c2-c2ccc3ncnn3c2)n1 [Compound 1.53, 6-(2-(azetidin-3-yl)-4-(6-methylpyridin-2-yl)-1H-imidazol-5-yl)-[1,2,4]triazolo[1,5-a]pyridine]
 | 1000 to 10000 | Cc1cccc(-c2nc(C34CCC(N)(CC3)CC4)[nH]c2-c2ccc3ncnn3c2)n1 [Compound 1.55, 4-(5-([1,2,4]triazolo[1,5-a]pyridin-6-yl)-4-(6-methylpyridin-2-yl)-1H-imidazol-2-yl)bicyclo[2.2.2]octan-1-amine]

From patent publication US20210154188A1, “ALK5 INHIBITORS, CONJUGATES, AND USES THEREOF” (SILVERBACK THERAPEUTICS, INC., priority 2018, published 2021)
